In ChEMBL document CHEMBL3596091, “Synthesis and evaluation of novel fluorinated pyrazolo-1,2,3-triazole hybrids as antimycobacterial agents” (Bioorg Med Chem Lett, 2015):
In brackets after ≈: the same amount, converted by molar mass.

Assays:
[1] = system: Mycolicibacterium smegmatis; assay: Antimycobacterial activity against Mycobacterium smegmatis str. MC2 155 incubated for 30 hrs by turbidometric assay; type: functional; conditions: str. MC2 155, 30 h
[2] = system: A549; assay: Cytotoxicity against human A549 cells incubated for 48 hrs by SRB assay; type: cell-based; conditions: A549, 48 h

SMILES	MIC [1]	IC50 [2]
O=C(Cn1cc(-c2ccccc2)nn1)Nc1c(C(F)(F)F)n[nH]c1-c1ccccc1	35.9 µg/mL (≈ 87.1 µM)	52.2 µg/mL (≈ 127 µM)
O=C(Cn1cc(-c2ccc(OC(F)(F)F)cc2)nn1)Nc1c(C(F)(F)F)n[nH]c1-c1ccccc1	35.4 µg/mL (≈ 71.3 µM)	45.3 µg/mL (≈ 91.2 µM)
O=C(Cn1cc(-c2ccc(-c3ccccc3)cc2)nn1)Nc1c(C(F)(F)F)n[nH]c1-c1ccccc1	31.8 µg/mL (≈ 65 µM)	57 µg/mL (≈ 117 µM)
CC(C)(C)c1ccc(-c2cn(CC(=O)Nc3c(C(F)(F)F)n[nH]c3-c3ccccc3)nn2)cc1	> 100 µg/mL	25.8 µg/mL (≈ 55.2 µM)
CCCCCc1ccc(-c2cn(CC(=O)Nc3c(C(F)(F)F)n[nH]c3-c3ccccc3)nn2)cc1	35.4 µg/mL (≈ 73.3 µM)	> 100 µg/mL
COc1ccc(-c2cn(CC(=O)Nc3c(C(F)(F)F)n[nH]c3-c3ccccc3)nn2)c(C)c1	85.6 µg/mL (≈ 188 µM)	54 µg/mL (≈ 118 µM)
Cc1cccc(-c2cn(CC(=O)Nc3c(C(F)(F)F)n[nH]c3-c3ccccc3)nn2)c1	29.9 µg/mL (≈ 70.2 µM)	60.6 µg/mL (≈ 142 µM)
O=C(Cn1cc(-c2ccccc2C(F)(F)F)nn1)Nc1c(C(F)(F)F)n[nH]c1-c1ccccc1	53 µg/mL (≈ 110 µM)	64.2 µg/mL (≈ 134 µM)
CCOC(=O)c1cn(CC(=O)Nc2c(C(F)(F)F)n[nH]c2-c2ccccc2)nn1	27.7 µg/mL (≈ 67.9 µM)	> 100 µg/mL
CCCCc1cn(CC(=O)Nc2c(C(F)(F)F)n[nH]c2-c2ccccc2)nn1	65.5 µg/mL (≈ 167 µM)	> 100 µg/mL
O=C(Cn1cc(COc2cccc3c(C(F)(F)F)cc(=O)oc23)nn1)Nc1c(C(F)(F)F)n[nH]c1-c1ccccc1	53.7 µg/mL (≈ 92.8 µM)	> 100 µg/mL
O=C(Cn1cc(CNc2cccc(C(F)(F)F)c2)nn1)Nc1c(C(F)(F)F)n[nH]c1-c1ccccc1	99.6 µg/mL (≈ 196 µM)	25.3 µg/mL (≈ 49.7 µM)
COc1cccc(NCc2cn(CC(=O)Nc3c(C(F)(F)F)n[nH]c3-c3ccccc3)nn2)c1	53.9 µg/mL (≈ 114 µM)	38.3 µg/mL (≈ 81.3 µM)
COc1ccc(NCc2cn(CC(=O)Nc3c(C(F)(F)F)n[nH]c3-c3ccccc3)nn2)cc1OC	58.3 µg/mL (≈ 116 µM)	> 100 µg/mL
COc1cc(NCc2cn(CC(=O)Nc3c(C(F)(F)F)n[nH]c3-c3ccccc3)nn2)cc(OC)c1OC	78.3 µg/mL (≈ 147 µM)	> 100 µg/mL
Cc1cccc(C)c1NCc1cn(CC(=O)Nc2c(C(F)(F)F)n[nH]c2-c2ccccc2)nn1	64.1 µg/mL (≈ 136 µM)	52.9 µg/mL (≈ 113 µM)

SMILES	MIC [1]	IC50 [2]
COc1ccc(C(=O)c2cn(CC(=O)Nc3c(C(F)(F)F)n[nH]c3-c3ccccc3)nn2)cc1	15.3 µg/mL (≈ 32.6 µM)	80.7 µg/mL (≈ 172 µM)
COc1ccc(C(=O)c2cn(CC(=O)Nc3c(C(F)(F)F)n[nH]c3-c3ccccc3)nn2)cc1OC	65.7 µg/mL (≈ 131 µM)	26.8 µg/mL (≈ 53.6 µM)
O=C(Cn1cc(C(=O)c2cn(-c3ccccc3)nc2-c2ccccc2)nn1)Nc1c(C(F)(F)F)n[nH]c1-c1ccccc1	28.8 µg/mL (≈ 49.5 µM)	68 µg/mL (≈ 117 µM)
O=C(Cn1cc(C(=O)c2cn(-c3ccccc3)nc2-c2ccc(Cl)cc2)nn1)Nc1c(C(F)(F)F)n[nH]c1-c1ccccc1	> 100 µg/mL	> 100 µg/mL
Cc1ccc(-c2nn(-c3ccccc3)cc2C(=O)c2cn(CC(=O)Nc3c(C(F)(F)F)n[nH]c3-c3ccccc3)nn2)cc1	94.5 µg/mL (≈ 158 µM)	> 100 µg/mL
COc1ccc(-c2nn(-c3ccccc3)cc2C(=O)c2cn(CC(=O)Nc3c(C(F)(F)F)n[nH]c3-c3ccccc3)nn2)cc1	25.3 µg/mL (≈ 41.2 µM)	59.6 µg/mL (≈ 97.3 µM)
NNC(=O)c1cn(CC(=O)Nc2c(C(F)(F)F)n[nH]c2-c2ccccc2)nn1	33.9 µg/mL (≈ 85.9 µM)	67.6 µg/mL (≈ 171 µM)
O=C(Cn1cc(C(=O)N/N=C/c2ccc(C(F)(F)F)cc2)nn1)Nc1c(C(F)(F)F)n[nH]c1-c1ccccc1	> 100 µg/mL	> 100 µg/mL
O=C(Cn1cc(C(=O)N/N=C/c2ccccc2C(F)(F)F)nn1)Nc1c(C(F)(F)F)n[nH]c1-c1ccccc1	16.2 µg/mL (≈ 29.4 µM)	> 100 µg/mL
O=C(Cn1cc(C(=O)N/N=C/c2cccc(Oc3ccccc3)c2)nn1)Nc1c(C(F)(F)F)n[nH]c1-c1ccccc1	16.6 µg/mL (≈ 28.9 µM)	> 100 µg/mL
COc1ccc(/C=N/NC(=O)c2cn(CC(=O)Nc3c(C(F)(F)F)n[nH]c3-c3ccccc3)nn2)cc1	45.6 µg/mL (≈ 88.9 µM)	> 100 µg/mL
COc1ccc(/C=N/NC(=O)c2cn(CC(=O)Nc3c(C(F)(F)F)n[nH]c3-c3ccccc3)nn2)cc1OC	41.3 µg/mL (≈ 76.1 µM)	> 100 µg/mL
COc1cccc2c1C(=O)c1c(O)c3c(c(O)c1C2=O)C[C@@](O)(C(=O)CO)C[C@@H]3O[C@H]1C[C@H](N)[C@H](O)[C@H](C)O1 [DOXORUBICIN]	–	8.5 µg/mL (≈ 15.6 µM)
NNC(=O)c1ccncc1 [ISONIAZID]	12.1 µg/mL (≈ 88 µM)	–
CO[C@H]1/C=C/O[C@@]2(C)Oc3c(C)c(O)c4c(O)c(c(/C=N/N5CCN(C)CC5)c(O)c4c3C2=O)NC(=O)/C(C)=C\C=C\[C@H](C)[C@H](O)[C@@H](C)[C@@H](O)[C@@H](C)[C@H](OC(C)=O)[C@@H]1C [RIFAMPIN]	2.15 µg/mL (≈ 2.61 µM)	–
